# Non-standard residues stand in square brackets, D forms with d. Residues, ends and D or L forms follow the SMILES beside them. No end group written: not given here. Hyp = O=C(O)[C@@H]1C[C@@H](O)CN1; 2Thi = N[C@@H](Cc1cccs1)C(=O)O; Gly(N-cHex) = O=C(O)CNC1CCCCC1; NChg = not defined here
# T1: human B2R (Gαi3) (Homo sapiens, UniProt P30411)
# T1 construct: expressed in transfected cells; host or cells: HEK293A
# T1 sequence (P30411 1-391): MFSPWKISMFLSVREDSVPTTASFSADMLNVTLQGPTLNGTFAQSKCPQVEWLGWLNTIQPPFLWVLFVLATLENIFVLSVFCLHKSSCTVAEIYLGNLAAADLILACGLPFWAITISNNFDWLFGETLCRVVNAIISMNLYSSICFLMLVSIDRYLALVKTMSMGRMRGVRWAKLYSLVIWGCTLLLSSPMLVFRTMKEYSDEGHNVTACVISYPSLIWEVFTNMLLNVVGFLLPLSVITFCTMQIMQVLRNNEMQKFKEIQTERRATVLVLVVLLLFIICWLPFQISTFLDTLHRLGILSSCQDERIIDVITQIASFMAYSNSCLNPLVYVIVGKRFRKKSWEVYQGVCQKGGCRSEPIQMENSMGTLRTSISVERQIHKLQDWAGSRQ
# T2: mutant human B2R(Ø) lacking AltB2R expression (Homo sapiens, UniProt P30411)
# T2 construct: expressed in transfected cells; host or cells: HEK293A
# T2 sequence (P30411 1-391): T1 sequence (P30411 1-391)
# T3: human B2R (β-arrestin2) (Homo sapiens, UniProt P30411)
# T3 construct: expressed in transfected cells; host or cells: HEK293A
# T3 sequence (P30411 1-391): T1 sequence (P30411 1-391)
# T4: mutant human B2R(Ø) lacking AltB2R expression (β-arrestin2) (Homo sapiens, UniProt P30411)
# T4 construct: expressed in transfected cells; host or cells: HEK293A
# T4 sequence (P30411 1-391): T1 sequence (P30411 1-391)
# T5: mutant human B2R(Ø) lacking AltB2R expression (Gαq) (Homo sapiens, UniProt P30411)
# T5 construct: expressed in transfected cells; host or cells: HEK293A
# T5 sequence (P30411 1-391): T1 sequence (P30411 1-391)
# T6: mutant human B2R(Ø) lacking AltB2R expression (Gαi3) (Homo sapiens, UniProt P30411)
# T6 construct: expressed in transfected cells; host or cells: HEK293A
# T6 sequence (P30411 1-391): T1 sequence (P30411 1-391)
# T7: mutant human B2R(Ø) lacking AltB2R expression (Gαi2) (Homo sapiens, UniProt P30411)
# T7 construct: expressed in transfected cells; host or cells: HEK293A
# T7 sequence (P30411 1-391): T1 sequence (P30411 1-391)
# T8: human B2R (Gαi2) (Homo sapiens, UniProt P30411)
# T8 construct: expressed in transfected cells; host or cells: HEK293A
# T8 sequence (P30411 1-391): T1 sequence (P30411 1-391)
# T9: human B2R (Gαq) (Homo sapiens, UniProt P30411)
# T9 construct: expressed in transfected cells; host or cells: HEK293A
# T9 sequence (P30411 1-391): T1 sequence (P30411 1-391)
# T10: human B2R on transfected HEK293A cells (human, UniProt P30411 1-391)
# T10 chain: T1 sequence (P30411 1-391)
# How the values were obtained:
# [1] = system: B1R; design: method as in PMID 15734727; conditions: cited from earlier work
# [2] = biological target: T1, human B2R (Gαi3); test: BRET G protein coupling Gαi3-RLuc2/GFP10-Gγ1, B2R-transfected HEK293A cells; format: cell-based; conditions: HEK293-A; relative to maximum B2R-induced BRET response; mean ± SD, n = 4; †p < 0.05 vs B2R(Ø); read-out: Emax, Gαi3/Gγ1 dissociation, B2R
# Source text: (§1) To test this hypothesis, we used live-cell bioluminescence resonance energy transfer (BRET) measurements to monitor the activation of G proteins by B2R. HEK293A cells were cotransfected with vectors coding for Gαq-RlucII or Gαi2/3-RlucII, Gβ, GFP10-Gγ1, and B2R or B2R^(Ø). In this experimental setting, the dissociation of Gαq-RlucII or Gαi2/3-RlucII from GFP10-Gγ1 results in a decrease of BRET signals. BRET data in Figure 6, A–C are presented relative to the maximum B2R-induced BRET response.
# (§2) D, β-arrestin2 recruitment at the plasma membrane after stimulation with NG291 in HEK293A cells transfected with B2R and B2R^(Ø) by following BRET proximity of β-arr2-RLuc2 and rGFP-CAAX. […] Note.
# (§3) BRET assays were performed as previously described ([56]). Briefly, HEK293A cells were grown in 96-well plates for 48 h after transient transfection with 10 μg BRET constructs (Gαq-RLuc2, Gβ1, and GFP10-Gγ1) (Gαi2-Rluc2, Gβ1, and GFP10-Gγ1) (Gαi3-Rluc2, Gβ1, and GFP10-Gγ1) (β-arrestin2-Rluc2 and rGFP-CAAX) and B2R or B2R^(Ø). Cells were washed twice with stimulation buffer (10 mM HEPES pH 7.4, 1 mM CaCl2, 0.5 mM MgCl2, 4.2 mM KCl, 146 mM NaCl, 5.5 mM glucose) and incubated for 1 h in 80 μl stimulation buffer at room temperature. […] BRET readings were collected in the […] (Rluc2) and […] (GFP10) windows, and BRET signal was calculated as a ratio of GFP10 on Rluc2. […]
# [3] = biological target: T2, mutant human B2R(Ø) lacking AltB2R expression; test: Competitive displacement of [3H]-BK binding, living B2R(Ø)-transfected HEK293A cells; conditions: n = 3
# Description: Black and gray, negative controls with secondary antibodies only; blue, ^FlagB2R transfected cells; red, ^FlagB2R^(Ø) transfected cells. […] Reported Kd are expressed in nM. Bmax is expressed in fmol/10^6 cells.
# Radioligand competition binding assay was performed using adherent living HEK293A cells transiently transfected with B2R or B2R^(Ø), as we previously described ([54]). […] Saturation binding assays were performed using adherent living HEK293A cells transiently transfected with B2R or B2R^(Ø). […] After the incubation time, cells were washed twice with ice-cold PBS, lysed with 200 μl of 0.1 N sodium hydroxide, and transferred into scintillation vials containing 4 ml scintillation liquid. The radioactivity was measured with a β-counter and data were analyzed using GraphPad 6.01 (GraphPad Software, Inc).
# [4] = biological target: T3, human B2R (β-arrestin2); test: BRET β-arrestin2 recruitment at the plasma membrane, B2R-transfected HEK293A cells; format: cell-based; conditions: HEK293-A
# Source text: as §2
# (§4) Since both G proteins and β-arrestins commonly participate in activation of MAPK pathways, we extended the BRET analysis to determine the effects of AltB2R on the efficacy of β-arrestin2 recruitment at the plasma membrane of HEK293A cells transfected with vectors coding for β-arrestin2-RLucII, rGFP-CAAX, and B2R or B2R^(Ø). BRET signals were monitored after addition of NG291.
# as §3
# [5] = system: mutant human B2R(Ø) lacking AltB2R expression (ERK1/2 phosphorylation); test: ERK1/2 phosphorylation (AlphaLISA SureFire Ultra), B2R(Ø)- versus B2R-transfected HEK293A cells; format: cell-based; conditions: 1 μM agonist, n = 2
# Description: (§5) To consolidate the western blot data, AlphaLISA assays were also conducted in parallel in the same cell lines for the quantitative analyses of B2R-stimulated ERK1/2 phosphorylation (Fig. 5, B and C).
# (§6) Quantitative densitometry analysis of pERK1/2 levels over time (top right). pERK/total ERK ratios were calculated for each time point.
# [6] = biological target: T4, mutant human B2R(Ø) lacking AltB2R expression (β-arrestin2); test: BRET β-arrestin2 recruitment at the plasma membrane, B2R(Ø)-transfected HEK293A cells; format: cell-based
# Source text: as §2, §4, §3
# [7] = biological target: T5, mutant human B2R(Ø) lacking AltB2R expression (Gαq); test: BRET G protein coupling Gαq-RLuc2/GFP10-Gγ1, B2R(Ø)-transfected HEK293A cells; format: cell-based; conditions: HEK293-A; relative to maximum B2R-induced BRET response; mean ± SD, n = 3; read-out: Emax, Gαq/Gγ1 dissociation, B2R(Ø)
# Source text: as §1, §2, §3
# [8] = biological target: T2, mutant human B2R(Ø) lacking AltB2R expression; test: Inositol phosphate (IP1) production, IP-One Gq assay (FRET), B2R(Ø)-transfected HEK293A cells (lacking AltB2R); format: cell-based
# Description: This construct is a monocistronic version of B2R with the mutation C168T. In this mutant, a premature stop codon is introduced in the AltB2R coding sequence (Q11stop) in a manner synonymous for B2R (L56 L). Thus, the B2R encodes B2R and AltB2R, whereas mutant B2R^(Ø) encodes only B2R.
# as §5, §6
# HeLa, HEK293T, and HEK293A cells were maintained in Dulbecco's modified Eagle's medium (DMEM) containing 10% fetal bovine serum (FBS) (Wisent, #080-450) and 1% antibiotic-antimycotic (Wisent, #450-115-EL) under standard conditions. HEK293A cells were transiently transfected with the pcDNA3.1-vector containing the cDNA of human B2R or B2R^(Ø), using polyethylenimine (PEI) or JetPrime (Polyplus). HeLa cells were transiently transfected with B2R and AltB2R constructs using GeneCellin (Bulldog Bio Inc) or JetPrime (Polyplus) transfection reagent, as per the manufacturer’s instructions, and incubated 24 h at 37 °C, unless otherwise stated.
# Inositol monophosphate (IP1) production was determined using the IP-One Gq assay kits (Cisbio, #62IPAPEB), according to the manufacturer's instructions. Fluorescence resonance energy transfer (FRET) signals were measured with a Tecan M1000 plate reader.
# [9] = biological target: T6, mutant human B2R(Ø) lacking AltB2R expression (Gαi3); test: BRET G protein coupling Gαi3-RLuc2/GFP10-Gγ1, B2R(Ø)-transfected HEK293A cells; format: cell-based; conditions: HEK293-A; relative to maximum B2R-induced BRET response; mean ± SD, n = 4; read-out: Emax, Gαi3/Gγ1 dissociation, B2R(Ø)
# Source text: as §1, §2, §3
# [10] = biological target: T7, mutant human B2R(Ø) lacking AltB2R expression (Gαi2); test: BRET G protein coupling Gαi2-RLuc2/GFP10-Gγ1, B2R(Ø)-transfected HEK293A cells; format: cell-based; conditions: HEK293-A; relative to maximum B2R-induced BRET response; mean ± SD, n = 4; read-out: Emax, Gαi2/Gγ1 dissociation, B2R(Ø)
# Source text: as §1, §2, §3
# [11] = biological target: T8, human B2R (Gαi2); test: BRET G protein coupling Gαi2-RLuc2/GFP10-Gγ1, B2R-transfected HEK293A cells; format: cell-based; conditions: HEK293-A; relative to maximum B2R-induced BRET response; mean ± SD, n = 4; ††p < 0.01 vs B2R(Ø); read-out: Emax, Gαi2/Gγ1 dissociation, B2R
# Source text: as §1, §2, §3
# [12] = biological target: T9, human B2R (Gαq); test: BRET G protein coupling Gαq-RLuc2/GFP10-Gγ1, B2R-transfected HEK293A cells; format: cell-based; conditions: HEK293-A; relative to maximum B2R-induced BRET response; mean ± SD, n = 3; †p < 0.05 vs B2R(Ø); read-out: Emax, Gαq/Gγ1 dissociation, B2R
# Source text: as §1, §2, §3
# [13] = biological target: T10, human B2R on transfected HEK293A cells; test: B2R(Ø); displacement of [3H]-BK
# [14] = biological target: T10, human B2R on transfected HEK293A cells; test: B2R; displacement of [3H]-BK
molecule,measurement,setting,value
"desArg^9-BK: carboxy-terminally truncated peptide metabolite (RPPGFSPF; Bradykinin; UniProt P01042 381-388, looked up, fragment)",kinin receptor selectivity,[1],"selectively bind to the other type of kinin receptor, the inducible B1R"
"N=C(N)NCCC[C@H](NC(=O)[C@H](Cc1cccs1)NC(=O)CN(C(=O)[C@H](CO)NC(=O)[C@H](Cc1cccs1)NC(=O)CNC(=O)[C@@H]1C[C@@H](O)CN1C(=O)[C@@H]1CCCN1C(=O)[C@@H](N)CCCNC(=N)N)C1CCCCC1)C(=O)O [NG291, [Hyp^3,Thi^5,^NChg^7,Thi^8]-BK] (H-RP[Hyp]G[2Thi]S[Gly(N-cHex)][2Thi]R-OH; N-terminus and C-terminus assumed)",Emax,[2],100 ± 21%
same,"binding affinity, B2R versus B2R(Ø)",[3],same affinities
same,Emax,[4],100 ± 10%
same,"maximal levels of phospho-ERK1/2 (AlphaLISA), B2R(Ø) versus B2R",[5],decreased maximal levels of phospho-ERK1/2
same,"recruitment of β-arrestin2, cells expressing or not AltB2R","[6]; BRET, B2R versus B2R(Ø), BK: data not shown",no difference in the recruitment of β-arrestin2
same,Emax,"[6]; HEK293-A, β-arr2-RLuc2 and rGFP-CAAX, mean ± SD, n = 3",88 ± 9%
same,Emax,[7],74 ± 8%
same,Emax,"[8]; HEK293-A, Emax in B2R(Ø) versus B2R cells, read-out: reduction of efficacy (Emax) for IP1 formation in cells without AltB2R expression",22%
same,"potency (EC50) for IP1 formation, B2R- versus B2R(Ø)-transfected cells","[8]; comparison of EC50 between B2R and B2R(Ø), unpaired t-test",no significant difference in potencies (EC50 values)
same,Emax,[9],60 ± 22%
same,Emax,[10],66 ± 12%
same,Emax,[11],100 ± 11%
same,Emax,[12],100 ± 10%
CC(=O)Nc1ccc(/C=C/C(=O)NCC(=O)N(C)c2ccc(Cl)c(COc3cccc4ccc(C)nc34)c2Cl)cn1 [FR173657],"binding affinity, B2R versus B2R(Ø)",[3],same affinities
"RP[Hyp]G[2Thi]S[NChg][2Thi]R (reading uncertain; also: printed as [Hyp^3,Thi^5,^NChg^7,Thi^8]-BK) [NG291 ([Hyp^3,Thi^5,^NChg^7,Thi^8]-BK)]",IC50,[13],4.38 nM
same,IC50,[14],6.21 nM
"RP[Hyp]G[2Thi]SP[Tyr(4-Me)]R (also: ΨCH2NH reduced bond between residues 8 and 9) [RMP-7 ([Hyp^3,Thi^5,(4-Me)Tyr^8(ΨCH2NH)Arg^9]-BK)]",IC50,[13],18 nM
same,IC50,[14],17.7 nM
